According to PMC6934184, “Selective DNA-PKcs inhibition extends the therapeutic index of localized radiotherapy and chemotherapy” (The Journal of Clinical Investigation, 2019):

Biological target: T1, STK32C (YANK3) (Homo sapiens, UniProt Q86UX6)
T1 construct: purchased Thermo Fisher Scientific (Life Technologies) SelectScreen
Experiment: SelectScreen LanthaScreen
Assay type: binding
Details: read-out: % displacement
Procedure, shortened: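 Percent values come from Thermo SelectScreen profiling of NU5455, combining activity and binding assays. CSF1R was run in Z'LYTE format at Km app ATP, and CAMK1 in Adapta format with ATP listed at 10.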

T1 sequence (Q86UX6 whole entry): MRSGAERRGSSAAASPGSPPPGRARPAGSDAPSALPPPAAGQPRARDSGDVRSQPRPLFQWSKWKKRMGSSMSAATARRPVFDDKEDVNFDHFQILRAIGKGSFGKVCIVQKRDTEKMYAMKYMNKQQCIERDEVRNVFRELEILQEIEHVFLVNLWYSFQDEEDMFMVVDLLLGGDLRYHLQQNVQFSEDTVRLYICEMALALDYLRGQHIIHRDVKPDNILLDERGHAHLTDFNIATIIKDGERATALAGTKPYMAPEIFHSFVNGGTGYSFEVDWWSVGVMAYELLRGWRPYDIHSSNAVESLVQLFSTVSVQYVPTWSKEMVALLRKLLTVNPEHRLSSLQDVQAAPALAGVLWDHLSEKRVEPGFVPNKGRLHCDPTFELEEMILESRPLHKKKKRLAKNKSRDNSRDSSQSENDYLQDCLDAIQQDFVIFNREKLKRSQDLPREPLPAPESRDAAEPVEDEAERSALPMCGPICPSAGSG

CN(C(=O)CN1CCOCC1)c1ccc2sc3c(-c4cccc5c(=O)cc(N6CC7CCC(C6)O7)oc45)cccc3c2c1 [NU5455]
inhibition at 1 µM: 4.2%
